One data set has as its system HBV core promoter. Briefly: Dual-luciferase reporter assay of HBV core promoter. Type of data set: cell-based, HBV genotype A. The source says: The HBV core promoter deletions were cloned using a multi-step strategy. First, the wild-type core promoter from HBV genotype A was inserted via KpnI and HindIII sites on the PGL3 Basic vector. Using this as the template, PGLF (5′ TCCCCAGTGCAAGTGCAGG) was used with reverse primer BX, where “X” denotes the deletion number and contains the nucleotide sequence flanking the 3′ end of the deletion. This amplifies the 5′ half of mutant core promoter. Primer CX containing nucleotide sequences flanking the 5′ end of the deletion site was then used with reverse primer PGLR (5′ […]) to synthesize the 3′ end of the mutant promoter. The 2 halves were annealed via their complementary sequences and amplified using primers PGLF and PGLR. PCR was performed using the Expand High Fidelity PCR System (Roche), and ran on 1% agarose gels in TBE buffer. DNA of appropriate sizes were extracted using the Qiaquick Gel Extraction Kit (Qiagen), double-digested with enzymes from New England BioLabs, then annealed using the Quick Ligation Kit.
Assays were performed with the Dual-Luciferase® Reporter Assay System (Promega) with modifications. HepG2 cells were seeded 18 hours prior to transfection in 24-well plates in triplicates at a density of 1.5×10^5 cells per well. Transfection was performed with 2.2 μl Lipofectamine 2000 (Invitrogen), 1 μg of PGL3 Basic construct plasmid and 15 ng of Renilla-luciferase construct per well. Additionally, 250 ng of over-expression plasmids for PARP-1 mutants were used when indicated. Transfected cells were lysed with 60 μl lysis buffer at 37° C. on a shaking incubator for 20 minutes after washing thrice with ice-cold PBS 30 hours post-transfection and 50 μl of the lysate was transferred on ice into black 96-well plates with clear bottoms (Corning), and luminescence measured with the GloMax® Multi-Microplate Multimode Reader (Promega).

A further data set has as its system HepG2 cells. Put plainly: Viable HBV-RFP transfected HepG2 cells. In kind it is cell-based. As to conditions: 15 μM, 72 hours after PARP inhibition. The text has this:
(§1) The coding sequence for red fluorescent protein (RFP) was cut from the pTurboFP635N (Evrogen) and inserted into the pcDNA3.1+ vector containing the HBV construct into the MCS via KpnI and NotI sites.

For the next data set, the system named is HBV. Put plainly: HBV transcripts in HepG2 cells transfected with HBV-RFP. In kind it is cell-based, HBV genotype A. As to conditions: 15 μM, added 24 hours after transfection, 48 hours later.
Description: Full-length replicative HBV genotype A (approximately 1.1X HBV genome starting from nucleotide 1535, ending at nucleotide 1930) driven by its own core promoter cloned from another construct and inserted into pcDNA3.1+ via the MfeI and MluI restriction sites, […] of the CMV promoter. Primers used are as follows: […]
as §1

Another data set concerns breast or ovarian cancer. To be noted: cited from earlier work.

For the molecule `NC(=O)c1cccc(N)c1` [3-AB, 3-aminobenzamide], the “transcription (luciferase expression) at wild-type HBV core promoter” value in the data set on HBV core promoter (HepG2, inhibitor added 24 hours after transfection) is “increased transcription at the HBV core promoter in a dose-dependent manner”. Also, in the data set with HBV core promoter (HepG2 and Huh-7), the “luciferase expression, mutant HBV core promoter with deletion of the PARP-1 binding site (Del-PARP1 motif)” value is “negligible effect”. For the same molecule, the “luciferase expression, wild-type HBV core promoter” value with HBV core promoter (Huh-7) was “increased luciferase expression”.
Turning to `CN(C)CC(=O)Nc1ccc2[nH]c(=O)c3ccccc3c2c1` [PJ-34], in the data set on HepG2 cells, the “relative percentage of viable cells that were HBV-transfected vs DMSO control” value is listed as “significantly higher”. In addition, the “increase in relative amounts of HBV transcripts” value in the data set on HBV is listed as “more than 3 fold”.
On to `O=C(c1cc(Cc2n[nH]c(=O)c3ccccc23)ccc1F)N1CCN(C(=O)C2CC2)CC1` [olaparib], for which the “durable objective antitumor activity” value in the data set on breast or ovarian cancer (60 patients, including 22 BRCA mutation carriers) is given as “observed only in confirmed carriers of a BRCA1 or BRCA2 mutation”. For the same molecule, the “BRCA carriers with ovarian, breast, or prostate cancers showing a clinical benefit” value in the data set with breast or ovarian cancer (Twelve of 19 BRCA carriers) is 63%. In addition, the side-effect profile result in the data set with breast or ovarian cancer (phase 1, orally active) is “acceptable side-effect profile”.

Values taken from patent US20140315973A1, “PARP-1 INHIBITORS” (priority 2010, published 2014).
